Experimental data reported in patent US20130310411A1, “NOVEL ACRIDINE DERIVATIVES” (PHARMINOX LIMITED, priority 2010, published 2013).

Columns and labels:
[1] = system: HT-29: human adenocarcinoma cell line; test: Growth inhibition assay (MTT); assay type: cell-based; settings: HT-29 cells, 96 hr incubation
Protocol: Growth inhibition was measured in the HT-29: human adenocarcinoma cell line using the 3-(4,5-Dimethylthiazol-2-yl)-2,5-diphenyltetrazolium bromide (MTT) assay:
Briefly, between 1500 and 2200 cells were seeded into the wells of 96-well microtiter plates and allowed to attach overnight. Test compounds were solubilised at 10 mM in dimethyl sulfoxide (DMSO), diluted in tissue culture media and added to cells at final concentrations of 30, 10, 3, 1, 0.3, 0.1, 0.03 and 0.01 μM in triplicate. Following an incubation period of 96 hr MTT was added to a final concentration of 400 μg/ml and the plates incubated for a further 4 hr. The media/MTT was then aspirated and 150 μl DMSO added. Plates were shaken briefly and the absorbance at 550 nm read using a Labtech LT-4000 plate reader. An extra plate was seeded and the MTT assay was carried out on this plate at the time of drug addition to ascertain an initial absorbance value.
Dose response curves were plotted and the GI50 values (concentration required to inhibit cell growth by 50%) determined for each agent where the absorbance value for control cells minus the initial absorbance was taken as 100% growth.

[2] = system: hTel, 5′ biotin-d[AG3(T2AG3)3]3′ (quadraplex) versus duplex, 5′biotind[CGA3T3C2TCTGA3T3CG]3′; test: Surface Plasmon Resonance Assay (SPR); assay type: binding; settings: HEPES buffer pH 7.3, 25° C.
Protocol: Biosensor experiments were conducted in filtered, degassed HEPES buffer (10 mM HEPES, 100 mM KCl, 3 mM EDTA, 0.000 05 v/v of 10% P20 BIACORE surfactant, pH 7.3) at 25° C. The 5′-biotin labeled DNA sequences (Integrated DNA Technologies) were HPLC purified and comprise the following sequences: hTel, ^5′ biotin-d[AG3(T2AG3)3]^3′; duplex, ^5′biotind[CGA3T3C2TCTGA3T3CG]^3′. The experiments were conducted upon a BIAcore 2000 optical biosensor instrument (BIAcore Inc.). Flow cell 1 was left blank as a reference, while flow cells 2-4 were immobilized with DNA on a streptavidin-derivatized gold chip (SA chip from BIAcore) by manual injection of DNA stock solutions (flow rate of 1 μL/min) until the desired value of DNA response was obtained (350-400 RU). Typically, a series of different ligand concentrations (1 nM to 10 μM from 20 mM DMSO stock) were injected onto the chip (flow rate of 50 μL/min, 5-10 min) until a constant steady-state response was obtained followed by a dissociation period (buffer, 10 min). After every cycle, the chip surface was regenerated (20 s injection of 10 mM glycine solution, pH 2.0) followed by running buffer flow. The data were processed using BIAevaluation (BIAcore Inc.) and Kaleidagraph (Synergy Software) software for nonlinear least-squares optimization of the binding parameters.

Row | GI50 [1] [µM] | Compound | Quadraplex:duplex ratio [2]
1 | 9.88 | CCOC(=O)C[n+]1c2ccccc2c2c3c(cccc31)-c1ccccc1O2 [Example 5, 8-(2-ethoxy-2-oxoethyl)chromeno[4,3,2-kl]acridin-8-ium iodide] | –
2 | 0.27 | COc1ccc2c(c1)-c1cccc3c1c(c1ccc(OC)cc1[n+]3C)S2 [Example 10, 3,10-dimethoxy-8-methylthiochromeno[4,3,2-kl]acridin-8-ium chloride] | 7.0
3 | 3.04 | C[n+]1c2ccccc2c2c3c(cccc31)-c1ccccc1S2 [Example 3, 8-methylthiochromeno[4,3,2-kl]acridin-8-ium chloride] | –
4 | 1.04 | COc1ccc2c(c1)-c1cccc3c1c(c1ccccc1[n+]3C)S2 [Example 8, 3-methoxy-8-methylthiochromeno[4,3,2-kl]acridin-8-ium chloride] | –
5 | > 30 | [O-][n+]1c2ccccc2c2c3c(cccc31)-c1ccccc1O2 [Example 4, chromeno[4,3,2-kl]acridine 8-oxide] | 7.5
6 | 3.67 | C[n+]1c2ccccc2c2c3c(cccc31)-c1cc(O)ccc1S2 [Example 14, 3-hydroxy-8-methylthiochromeno[4,3,2-kl]acridin-8-ium chloride] | >80
7 | 2.99 | COC(=O)c1ccc2c(c1)Sc1c3ccccc3[n+](C)c3cccc-2c13 [Example 15, 2-(methoxycarbonyl)-8-methylthiochromeno[4,3,2-kl]acridin-8-ium chloride] | 18.1
8 | 0.76 | COC(=O)c1ccc2c(c1)Sc1c3ccc(OC)cc3[n+](C)c3cccc-2c13 [Example 11, 10-methoxy-2-(methoxycarbonyl)-8-methylthiochromeno[4,3,2-kl]acridin-8-ium chloride] | 17.4
9 | 0.93 | C[n+]1c2ccccc2c2c3c(cccc31)-c1ccccc1O2.[Cl-] [Example 2, 8-Methylchromeno[4,3,2-kl]acridin-8-ium chloride] | 4.75
10 | 9.66 | CC(=O)Nc1cccc2c1-c1cccc3c1c(c1ccccc1[n+]3C)S2 [Example 18, 4-acetamido-8-methylthiochromeno[4,3,2-kl]acridin-8-ium iodide] | –
11 | 0.95 | COc1cccc2c1-c1cccc3c1c(c1ccccc1[n+]3C)S2 [Example 9, 4-methoxy-8-methylthiochromeno[4,3,2-kl]acridin-8-ium iodide] | –
12 | 4.49 | COC(=O)c1cccc2c1-c1cccc3c1c(c1ccc(OC)cc1[n+]3C)S2 [Example 12, 10-methoxy-4-(methoxycarbonyl)-8-methylthiochromeno[4,3,2-kl]acridin-8-ium chloride] | >53
13 | 0.95 | CC(=O)Nc1ccc2c(c1)-c1cccc3c1c(c1ccccc1[n+]3C)O2 [Example 7, acetamido-8-methylchromeno[4,3,2-kl]acridin-8-ium chloride] | –
14 | 9.39 | CC(=O)Nc1ccc2c(c1)-c1cccc3nc4ccccc4c(c13)O2 [Example 6, N-(chromeno[4,3,2-kl]acridin-3-yl)acetamide] | –
15 | 12.8 | COC(=O)c1cccc2c1-c1cccc3c1c(c1ccccc1[n+]3C)S2 [Example 16, 4-(methoxycarbonyl)-8-methylthiochromeno[4,3,2-kl]acridin-8-ium iodide] | –
16 | 1.88 | COCOc1ccc2c(c1)-c1cccc3nc4ccccc4c(c13)S2 [Example 17, 3-(methoxymethoxy)thiochromeno[4,3,2-kl]acridine] | –
17 | 10.4 | c1ccc2c(c1)Oc1c3ccccc3nc3cccc-2c13 [Example 1, Chromeno[4,3,2-kl]acridine] | –

Row | Compound | GI50 [1] [µM] | Quadraplex:duplex ratio [2]
18 | COC(=O)c1ccc2c(c1)-c1cccc3c1c(c1ccccc1[n+]3C)S2 [Example 20, 3-(methoxycarbonyl)-8-methylthiochromeno[4,3,2-kl]acridin-8-ium iodide and chloride] | 6.46 | –
19 | CC(=O)Oc1ccc2c(c1)-c1cccc3c1c(c1ccccc1[n+]3C)S2 [Example 13, 3-acetoxy-8-methylthiochromeno[4,3,2-kl]acridin-8-ium chloride] | 6.17 | –
20 | COc1ccc2c3c4c(c(OC)ccc4[n+](C)c2c1)-c1ccccc1S3 [Example 19, 5,10-dimethoxy-8-methylthiochromeno[4,3,2-kl]acridin-8-ium iodide] | 1.03 | –
